Experimental data as given in article PMC11930985 (Nature Communications, 2025).
“Also recorded” adds a separate entry of the source. Like-named read-outs stand apart in the source and are kept apart here.

Test system: AML/MDS patients
Details: for Fatal SAE: Adverse event / Fatal SAE: Grade / Fatal SAE: Relationship to Bemcentinib: per patient
Experimental: Safety assessments including standard clinical laboratory safety tests (hematology, biochemistry, coagulation, and urinalysis), physical examinations, vital signs (blood pressure, heart rate, respiration rate and temperature), and ECOG performance status were performed at baseline and throughout the study. Electrocardiograms were obtained at screening, Cycle 1 Day 1–4, 8, and 15, Cycle 2 Day 1, 8 and 15, at Day 1 of each cycle thereafter, (up to and including Cycle 15), and at Final Study Visit. QT prolongation was assessed using the Fridericia correction […] [34]. Severity of QTcF prolongation was defined as follows: Grade 1: maximum prolongation 450–480 ms; Grade 2: maximum prolongation 481-500 ms; Grade 3: ≥501 ms on at least two separate ECGs; Grade 4: ≥501 ms or >60 ms change from baseline, with Torsades de pointes, polymorphic ventricular tachycardia or signs/symptoms of serious arrythmia; Grade 5: Death.
Adverse events (AEs) were monitored starting at study enrolment until 28 days after end of treatment and graded according to the National Cancer Institute Common Terminology Criteria for Adverse Events (NCI-CTCAE) version 4.0. If drug-related toxicities continued beyond the follow-up period, patients were followed until all drug-related toxicities resolved to grade ≤1, stabilized or returned to baseline.

## Nc1nc(Nc2ccc3c(c2)CC[C@@H](N2CCCC2)CC3)nn1-c1cc2c(nn1)-c1ccccc1CCC2 [Bemcentinib]
human, in vivo
  Leukocytosis, patients affected: 1 (2.8) n (%)
  Melaena, number of events (E): 1
  Melaena, patients affected: 1 (2.8) n (%)
  Mental status changes, number of events (E): 1
  Mental status changes, patients affected: 1 (2.8) n (%)
  Metabolism and nutrition disorders (System Organ Class), number of events (E): 21
  Metabolism and nutrition disorders (System Organ Class), patients affected: 14 (38.9) n (%)
  Musculoskeletal and connective tissue disorders (System Organ Class), number of events (E): 4
  Musculoskeletal and connective tissue disorders (System Organ Class), patients affected: 2 (5.6) n (%)
  Nausea, number of events (E): 3
  Nausea, patients affected: 3 (8.3) n (%)
  Nervous system disorders (System Organ Class), number of events (E): 3
  Nervous system disorders (System Organ Class), patients affected: 3 (8.3) n (%)
  Neutropenia, number of events (E): 3
  Neutropenia, patients affected: 2 (5.6) n (%)
  Number of TEAE, number of events (E): 148
  Number of TEAE, patients affected: 35 (97.2) n (%)
  Oesophagitis, number of events (E): 1
  Oesophagitis, patients affected: 1 (2.8) n (%)
  Osteitis, number of events (E): 1
  Osteitis, patients affected: 1 (2.8) n (%)
  Patients with dose interruptions due to adverse events: 17
  Patients with dose reductions: 3
  Pharyngitis, number of events (E): 1
  Pharyngitis, patients affected: 1 (2.8) n (%)
  Pneumonia, number of events (E): 8
  Pneumonia, patients affected: 8 (22.2) n (%)
  Psychiatric disorders (System Organ Class), number of events (E): 3
  Psychiatric disorders (System Organ Class), patients affected: 3 (8.3) n (%)
  Pulmonary congestion, number of events (E): 1
  Pulmonary congestion, patients affected: 1 (2.8) n (%)
  Rash erythematous, number of events (E): 1
  Rash erythematous, patients affected: 1 (2.8) n (%)
  Renal and urinary disorders (System Organ Class), number of events (E): 4
  Renal and urinary disorders (System Organ Class), patients affected: 2 (5.6) n (%)
  Respiratory failure, number of events (E): 1
  Respiratory failure, patients affected: 1 (2.8) n (%)
  Respiratory, thoracic and mediastinal disorders (System Organ Class), number of events (E): 9
  Respiratory, thoracic and mediastinal disorders (System Organ Class), patients affected: 6 (16.7) n (%)
  Sepsis, number of events (E): 3
  Sepsis, patients affected: 3 (8.3) n (%)
  Skin and subcutaneous tissue disorders (System Organ Class), number of events (E): 1
  Skin and subcutaneous tissue disorders (System Organ Class), patients affected: 1 (2.8) n (%)
  Stomatitis, number of events (E): 1
  Stomatitis, patients affected: 1 (2.8) n (%)
  Streptococcal bacteraemia, number of events (E): 1
  Streptococcal bacteraemia, patients affected: 1 (2.8) n (%)
  Supraventricular tachycardia, number of events (E): 1
  Supraventricular tachycardia, patients affected: 1 (2.8) n (%)
  Syncope, number of events (E): 1
  Syncope, patients affected: 1 (2.8) n (%)
  TEAE leading to Discontinuation: 4 n (%)
  Thrombocytopenia, number of events (E): 7
  Thrombocytopenia, patients affected: 5 (13.9) n (%)
  Toothache, number of events (E): 1
  Toothache, patients affected: 1 (2.8) n (%)
  Urethral haemorrhage, number of events (E): 1
  Urethral haemorrhage, patients affected: 1 (2.8) n (%)
  Urinary incontinence, number of events (E): 1
  Urinary incontinence, patients affected: 1 (2.8) n (%)
  Vascular disorders (System Organ Class), number of events (E): 3
  Vascular disorders (System Organ Class), patients affected: 3 (8.3) n (%)
  Viral infection, number of events (E): 1
  Viral infection, patients affected: 1 (2.8) n (%)
  Vomiting, number of events (E): 2
  Vomiting, patients affected: 2 (5.6) n (%)
human, in vivo, po
  Oral pain, number of events (E): 1
  Oral pain, patients affected: 1 (2.8) n (%)
In vivo
  Eye toxicity of grade ≥3: Only a single event
  Retinal toxicities: no evidence for retinal toxicities
  Tolerability: well-tolerated
Dose escalation 400 mg/100 mg
  Fatal SAE: Adverse event: Neutropenic sepsis
  Fatal SAE: Grade: 5
  Fatal SAE: Relationship to Bemcentinib: Unrelated
Dose escalation 400 mg/200 mg
  Fatal SAE: Adverse event: Multi-organ failure; also recorded: Pneumonia fungal; also recorded: Cerebral haemorrhage
  Fatal SAE: Grade: 5
  Fatal SAE: Relationship to Bemcentinib: Unrelated; also recorded: Unlikely related
Dose escalation 600 mg/200 mg
  Fatal SAE: Adverse event: Pneumonia; also recorded: Sepsis
  Fatal SAE: Grade: 5
  Fatal SAE: Relationship to Bemcentinib: Unrelated
